Experimental data published in patent US8697840B2, “Peptide inhibition of lung epithelial apoptosis and pulmonary fibrosis” (Board of Regents, The University of Texas System, priority 2008, dated 2014).

Key:
PAI-1 [1] = test: Western blot of BAL fluid and lung homogenates of bleo-treated mice: PAI-1; type: in vivo, mouse; conditions: 40 μg bleomycin intranasally, day 7; for PAI-1 expression in lung homogenates: 10 mM peptide i.p. by 0.1 ml osmotic pump after 24 h
Description: (§1) Mice were treated intranasally with 50 μl saline (SAL; control) or an equal volume of a 40 μg bleomycin solution (Bleo). After 24 h, 10 mM PP-1 (“Bleo+PP-1”) or control peptide (Bleo+CP-1) were given intraperitoneally using a 0.1 ml osmotic pump. Lungs were excised on day 7, bronchoalveolar lavage (BAL) fluid (“B”), lung homogenates (“H”) and membrane proteins (uPAR) were analyzed by Western blotting using antibodies specific for the murine proteins. (The same blot (“H”) was then stripped and analyzed for β-actin confirm equivalent loading of the lanes)
(§2) Mice were treated intranasally with 50 μl saline or an equal volume of a 40 μg bleomycin solution. After 24 h, 10 mM PP-1 or the same concentration of control peptide CP-1 were given intraperitoneally using a 0.1 ml osmotic pump. Lungs were excised on day 7.
Lung tissue was chopped into small pieces with fine scissors and rinsed 3× with PBS. The tissues were then homogenized in 1 ml of extraction buffer (25 mM Tris-HCl, pH 7.9. 0.5 mM EDTA and 0.1 mM PMSF) and the homogenate was centrifuged at 12,000 g for 15 min at 4° C. The supernatant was removed and referred to as the crude extract. Protein content was measured using a BioRad protein assay kit. Cytosolic proteins were separated by SDS-PAGE and transferred to a nitrocellulose membrane which was blocked with 1% BSA in a wash buffer for 1 h at room temperature followed by overnight incubation with antibodies specific for uPA, PAI-1 or p53 in the same buffer at 4° C. Protein was detected by enhanced chemiluminescence (ECL). Membranes were stripped and immunoblotted for β-actin.
Mice were treated intranasally with saline (controls) are indicated (SAL). Mice receiving an equal volume of a 40 μg bleomycin solution are indicated (Bleo). Mice given PP-1 are indicated (PP-1) and those given control peptide are indicated (CP-1). BAL fluid is indicated (B), and lung homogenates (H) and membrane proteins (uPAR). Blots were probed with antibodies specific for the relevant murine proteins. (The same blot (H) was later stripped and analyzed for β-actin confirm equivalent loading of the lanes)

p53 = test: Western blot of lung homogenates of bleo-treated mice: p53; type: in vivo, mouse; conditions: 40 μg bleomycin intranasally, 10 mM peptide i.p. by 0.1 ml osmotic pump after 24 h, day 7
Description: as §1, §2
Lung tissue was chopped into small pieces with fine scissors and rinsed 3× with PBS. The tissues were then homogenized in 1 ml of extraction buffer (25 mM Tris-HCl, pH 7.9. 0.5 mM EDTA and 0.1 mM PMSF) and the homogenate was centrifuged at 12,000 g for 15 min at 4° C. […] Protein content was measured using a BioRad protein assay kit. […] Protein was detected by enhanced chemiluminescence (ECL). […]
Mice were treated intranasally with saline (controls) are indicated (SAL). […] (The same blot (H) was later stripped and analyzed for β-actin confirm equivalent loading of the lanes)

cleaved PARP = test: IHC of lung sections of bleo-treated mice: cleaved PARP; type: in vivo, mouse; conditions: peptide 4.5 μM i.p. days 1 and 2, bleomycin 40 μg/50 μl intranasal day 2; up to 72 h
Description: On day 2 mice were treated with bleomycin (40 μg/50μl) by intranasal instillation. Mice were sacrificed 24, 48 and 72 h after later, lungs were excised, inflated and fixed in formalin, and […] sections were analyzed by immunohistochemistry (IHC) using an antibody specific for cleaved PARP.
(§3) For immunohistochemical (IHC) analysis, lungs were inflated at constant pressure of 20 cm H2O, removed and fixed overnight in 2% paraformaldehyde in PBS. Tissue was dehydrated by passage through a standard alcohol series and was embedded in paraffin. 5 μm sections were deparaffinized with xylene followed by incubation with 100% and 95% alcohol. After 10 min of antigen retrieval, the slides were incubated with H2O2 for 30 min to quench endogenous peroxidase. Slides were incubated overnight with the respective antibodies in PBS containing 0.1% Tween 20 and further processed using Lab vision kit (Freemont Calif.).

PAI-1 [2] = test: IHC of lung tissue of bleo-treated mice: PAI-1; type: in vivo, mouse; conditions: bleomycin-treated mice, 24-72 h
Description: as §3
An IHC study was conducted to analyze lung tissue for expression p53, uPA, uPAR, PAI-1 and cleaved caspase 3 (Table 2). […] These IHC observations were confirmed by Western blotting (see Example II and FIG. 5).

[3] = test system: bleo-induced lung injury in the mouse; test: Lung hydroxyproline (collagen deposition) after bleo-induced lung injury; type: in vivo; conditions: for lung hydroxyproline levels: 50 μg Bleo intranasally, 10 mM peptide in 0.1 ml osmotic pump i.p. one day later, lungs after 21 days
Description: (§4) FIGS. 10A and 10B are graphs showing the effect of PP-1 on fibrosis following bleo-induced lung injury in the mouse. […] 24 h after bleo, 0.1 ml osmotic pump filled with 10 mM PP-1 (designated “Bleo+PP” in Figures) or CP1 control scrambled peptide (“Bleo+CP1”) were implanted intraperitoneally. Lungs were harvested after 21 days, homogenized and the homogenates were subjected to the analysis of hydroxyproline or desmosine levels.
Anesthetized mice received intranasal bleomycin HCl solution containing 40 μg/50μl in sterile saline solution. After 24 h, 7 days or 14 days 10 mM PP-1 (“Bleo+PP-1”) or control peptide (Bleo+CP-1) were given ip using a 0.1 ml osmotic pump. Mice were sacrificed and lungs excised 21 days later. Lung homogenates were analyzed for hydroxyproline. Results are expressed a % of control hydroxyproline concentration.
Anesthetized mice received intranasal bleomycin HCl solution containing 40 μg/50 μl in sterile saline solution. After day 7, 10 mM peptide PP-2 (“Bleo+PP-2”) or control peptide (“Bleo+CP-2) were given intraperitoneally using a 0.1 ml osmotic pump. Lungs were excised after 21 days, lungs were homogenized and the homogenates were analyzed for hydroxyproline. Results are expressed a % of control hydroxyproline concentration.
The hPro content of the whole mouse lungs tissues were measured using the technique of Woessner J F, 1961, Arch. Biochem. Biophys. 93:440-7). Lung tissue from each animal was homogenized in 1.0 ml of extraction buffer. One ml 12N HCl was added, and the samples were hydrolyzed at 110° C. for 24 h. After cooling, 5 μl of the samples were mixed with 5 μl of citrate-acetate buffer (5% citric acid, 1.2% glacial acetic acid, 7.25% sodium acetate and 3.4% sodium hydroxide) and 100 μl of chloramine-T solution (1.4% chloramine-T, 10% N-propanol, and 80% citrate acetate buffer) in 96 well plates. The mixture was incubated for 20 min at room temperature. A total of 100 μl of Ehrlich's solution (2.5 g p-dimethylaminobenzaldehyde added to 9.3 ml of n-propanol and 3.9 ml of 70% perchloric acid) was added to each well and the plates incubated at 65° C. for 18 min. The absorbance of each sample was measured at 550 nm. Standard curves were generated for each experiment using a known concentration of reagent hPro. Results were expressed as % changes in hPro content (with total hPro content of saline-treated control mouse lungs considered 100%).
(§5) Lungs were harvested after 21 days, homogenized and the homogenates were subjected to the analysis of hydroxyproline as above (FIG. 10A) or desmosine (FIG. 10B). The effect of PP-1 on fibrosis in bleo-induced mouse lung injury was evaluated. Mice were treated with saline or 50 μg Bleo intranasally were implanted one day later with, 0.1 ml osmotic pumps i.p. The pumps were filled with either 10 mM (2.92 mg/100 μl) PP-1 (“Bleo+PP-1”) or control scrambled peptide CP-1 (“Bleo+CP-1”).

[4] = test system: bleo-induced lung injury in the mouse; test: Lung desmosine (elastin) after bleo-induced lung injury; type: in vivo; conditions: 50 μg Bleo intranasally; 10 mM peptide in 0.1 ml osmotic pump i.p. one day later; lungs after 21 days
Description: as §4, §5

Src kinase = conditions: Beas2B cells, bleo 40 μg/ml, 24 h, Western blot
Description: Cell lysates were analyzed for activating tyrosine (Y418) phosphorylation and inhibitory tyrosine (Y529) phosphorylation by Western blotting using phospho-specific antibodies. The same membrane was stripped and analyzed for total Src (Src-2) kinase and β-actin expression by Western blotting using specific antibodies.

| Substance | PAI-1 expression in lung homogenates (PAI-1 [1]) | PAI-1 in BAL fluid (PAI-1 [1]) | p53 expression in lung homogenates (p53) | cleavage (degradation) of PARP in lung (cleaved PARP) | PAI-1 expression in lung tissue (IHC) (PAI-1 [2]) | lung hydroxyproline levels [3] | lung desmosine levels [4] | Src kinase activation (Y418 / Y529 phosphorylation) (Src kinase) | bleomycin-induced collagen deposition (hydroxyproline, % of control) ([3]; bleomycin 40 μg/50 μl intranasal, 10 mM peptide i.p. osmotic pump after 24 h, 7 days or 14 days, lungs 21 days) |
| --- | --- | --- | --- | --- | --- | --- | --- | --- | --- |
| Bleomycin | increased | increased | increased | induced cleavage of PARP after 72 h of exposure | PAI-1 expression was also increased in bleomycin-treated mice beginning 24 h after treatment | significant increase in lung hydroxyproline or desmosine levels | significant increase in lung hydroxyproline or desmosine levels | Src kinase activation through phosphorylation of Src Y418 |  |
| DGIWKASFTTFTVTKYWFYR [PP-1] | inhibited the increased p53 and PAI-1 expression |  | inhibited the increased p53 and PAI-1 expression | reversed such PARP degradation | reduced this PAI-1 expression | significantly reduced, to normal levels | significantly reduced, to normal levels | inhibited bleo-induced activation of Src Y418 through phosphorylation of Src Y529 | significantly inhibited bleomycin-induced collagen deposition and lung fibrosis |
